Bounds are passed on as bounds.

In data set [1] the target is T1, Cholinesterase (Equus caballus, UniProt P81908). The data set is described as follows: Inhibition of equine serum BChE using S-butyrylthiocholine iodide as substrate preincubated for 20 mins followed by substrate addition and measured every minute for 10 mins by DTNB-reagent based Ellman's method. A general note: DTNB colorimetry detects thiols as they appear.
Data set [2] concerns the target Acetylcholinesterase (Electrophorus electricus, UniProt O42275). The data set is described as follows: Inhibition of electric eel AChE using acetylthiocholine iodide as substrate preincubated for 20 mins followed by substrate addition and measured every minute for 10 mins by DTNB-reagent based Ellman's method.
Data set [3] can be described thus: Effective permeability of compound by PAMPA-BBB assay. It is filed as ADME. The following applies: read-out: Peff. For orientation: In PAMPA a lipid-coated filter parts donor from acceptor wells.
The target of data set [4] is T2, Acetylcholinesterase (Homo sapiens, UniProt P22303). The data set is described as follows: Inhibition of recombinant human AChE.
Data set [5] addresses T1, Cholinesterase. Description: Mixed type inhibition of equine serum BChE assessed as decrease in Vmax and increase in Km using varying level of S-butyrylthiocholine iodide as substrate preincubated for 20 mins followed by substrate addition and measured every minute for 10 mins by Lineweaver-Burk plot analysis.
For data set [6], the target named is T2, Acetylcholinesterase. Description: Non-competitive inhibition of recombinant human AChE assessed as decrease in Vmax with constant Km using varying level of acetylthiocholine iodide as substrate preincubated for 20 mins followed by substrate addition and measured every minute for 10 mins by Lineweaver-Burk plot analysis.
The species entered for a further data set is Rattus norvegicus. The data set is described as follows: Inhibition of rat self-induced Amyloid beta (1 to 42 residues) aggregation at 10 uM incubated for 24 hrs by thioflavin-T fluorescence assay relative to control.

T1 sequence (P81908 whole entry): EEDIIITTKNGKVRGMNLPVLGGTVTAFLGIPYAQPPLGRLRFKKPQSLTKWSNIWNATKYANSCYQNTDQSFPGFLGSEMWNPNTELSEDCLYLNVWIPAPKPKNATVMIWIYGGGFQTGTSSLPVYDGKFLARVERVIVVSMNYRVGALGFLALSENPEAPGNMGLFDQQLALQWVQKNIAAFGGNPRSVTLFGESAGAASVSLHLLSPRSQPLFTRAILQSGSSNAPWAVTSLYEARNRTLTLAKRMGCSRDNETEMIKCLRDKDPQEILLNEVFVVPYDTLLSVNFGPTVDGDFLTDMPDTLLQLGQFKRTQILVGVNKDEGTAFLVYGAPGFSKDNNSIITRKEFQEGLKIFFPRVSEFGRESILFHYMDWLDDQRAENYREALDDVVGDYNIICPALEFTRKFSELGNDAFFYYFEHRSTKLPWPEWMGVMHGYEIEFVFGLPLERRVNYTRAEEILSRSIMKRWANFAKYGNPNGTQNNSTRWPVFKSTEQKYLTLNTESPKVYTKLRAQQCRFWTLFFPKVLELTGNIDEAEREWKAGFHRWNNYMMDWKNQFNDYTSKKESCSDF
Acetylcholinesterase (Electrophorus electricus, UniProt O42275), sequence (O42275 whole entry): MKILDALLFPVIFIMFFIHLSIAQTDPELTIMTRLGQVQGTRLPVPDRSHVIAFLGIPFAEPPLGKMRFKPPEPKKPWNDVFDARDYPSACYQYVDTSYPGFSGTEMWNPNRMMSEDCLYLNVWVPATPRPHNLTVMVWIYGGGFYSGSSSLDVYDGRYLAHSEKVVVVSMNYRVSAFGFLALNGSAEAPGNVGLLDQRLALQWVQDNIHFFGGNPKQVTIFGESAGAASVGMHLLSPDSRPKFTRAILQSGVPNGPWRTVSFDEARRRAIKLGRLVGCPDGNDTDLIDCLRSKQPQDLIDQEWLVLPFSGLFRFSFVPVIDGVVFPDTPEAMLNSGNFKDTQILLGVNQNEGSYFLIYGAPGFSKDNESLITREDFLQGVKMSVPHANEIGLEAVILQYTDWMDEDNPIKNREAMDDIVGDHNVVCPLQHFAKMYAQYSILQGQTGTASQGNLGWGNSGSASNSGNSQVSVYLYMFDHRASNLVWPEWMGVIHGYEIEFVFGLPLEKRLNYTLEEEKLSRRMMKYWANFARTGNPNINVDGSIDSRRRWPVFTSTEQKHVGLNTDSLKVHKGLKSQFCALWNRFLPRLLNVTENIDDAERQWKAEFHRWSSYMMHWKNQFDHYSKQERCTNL
T2 sequence (P22303 whole entry): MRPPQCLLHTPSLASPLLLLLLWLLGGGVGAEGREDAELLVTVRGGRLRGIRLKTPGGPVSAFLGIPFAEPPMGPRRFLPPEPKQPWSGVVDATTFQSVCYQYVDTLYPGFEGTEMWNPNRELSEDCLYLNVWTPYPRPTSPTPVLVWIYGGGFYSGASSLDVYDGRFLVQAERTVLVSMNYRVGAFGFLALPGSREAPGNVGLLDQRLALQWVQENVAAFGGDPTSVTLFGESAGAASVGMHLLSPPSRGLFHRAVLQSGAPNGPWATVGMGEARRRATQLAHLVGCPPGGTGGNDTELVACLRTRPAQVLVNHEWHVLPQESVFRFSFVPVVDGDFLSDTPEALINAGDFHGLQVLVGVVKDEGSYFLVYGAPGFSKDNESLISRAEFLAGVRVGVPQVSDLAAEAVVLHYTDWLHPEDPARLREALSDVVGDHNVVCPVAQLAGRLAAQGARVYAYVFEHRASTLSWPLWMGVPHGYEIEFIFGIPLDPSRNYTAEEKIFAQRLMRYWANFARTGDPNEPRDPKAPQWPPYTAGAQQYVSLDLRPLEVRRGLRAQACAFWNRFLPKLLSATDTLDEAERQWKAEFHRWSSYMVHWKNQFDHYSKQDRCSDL

For orientation: IC50 means the point on the concentration scale where inhibition reaches its midpoint. Turning to `COc1ccc2cc(C(=O)Nc3cc[n+](Cc4ccccc4)cc3)ccc2c1`, the concentration for half-maximal inhibition (IC50) against Cholinesterase [1] amounted to 1590 nM; on Acetylcholinesterase [2], 218 nM.

For `COc1cc(OC)cc(C(=O)Nc2cc[n+](Cc3ccccc3)cc2)c1`, the IC50 against Acetylcholinesterase [2] was found to be 202 nM. On to `COc1ccc2cc(C(=O)Nc3cc[n+](Cc4ccccc4F)cc3)ccc2c1`, for which the IC50 is above 1000 nM at Cholinesterase [1] and 210 nM against Acetylcholinesterase [2]. In turn, `COc1ccc(C(=O)Nc2cc[n+](Cc3ccccc3)cc2)cc1OC` came in with an IC50 at Acetylcholinesterase [2] of 420 nM. For `COc1ccc2cc(C(=O)Nc3cc[n+](Cc4ccc(Cl)cc4)cc3)ccc2c1`, the IC50 against Cholinesterase [1] is above 1000 nM; against Acetylcholinesterase [2], 900 nM. On to `COc1ccc2cc(C(=O)Nc3cc[n+](Cc4ccc(F)cc4)cc3)ccc2c1`, for which the IC50 on Cholinesterase [1] was above 1000 nM; against Acetylcholinesterase [2] it was 210 nM. Take `O=C(Nc1cc[n+](Cc2ccccc2)cc1)c1ccc(-c2ccccc2)cc1`: the IC50 against Cholinesterase [1] is above 1000 nM; against Acetylcholinesterase [2], 770 nM. `COc1ccc2cc(C(=O)NCCc3cc[n+](Cc4ccccc4F)cc3)ccc2c1`: the IC50 against Cholinesterase [1] is above 1000 nM; against Acetylcholinesterase [2], 280 nM. For the compound `COc1ccc2cc(C(=O)Nc3cc[n+](Cc4ccccc4C)cc3)ccc2c1`, the IC50 is above 1000 nM on Cholinesterase [1] and 435 nM against Acetylcholinesterase [2]. Take `COc1ccc2cc(C(=O)NCCc3cc[n+](Cc4ccc(F)cc4)cc3)ccc2c1`: the IC50 on Cholinesterase [1] is above 1000 nM; against Acetylcholinesterase [2] it was 740 nM. Regarding `O=C(Nc1cc[n+](Cc2ccccc2)cc1)c1ccc2cc(Br)ccc2c1`, on Acetylcholinesterase [2], the IC50 is 1440 nM. Compound `N#Cc1ccc(C(=O)Nc2cc[n+](Cc3ccccc3)cc2)cc1` registered an IC50 at Acetylcholinesterase [2] of 469 nM. In the case of `COc1ccc2cc(C(=O)NCCc3cc[n+](Cc4ccccc4)cc3)ccc2c1.[Br-]`, the IC50 against Cholinesterase [1] stood at 680 nM; against Acetylcholinesterase [2], 770 nM. Moreover, in data set [3], the Papp was 1.3 ×10⁻⁶ cm/s. As to `COc1ccc2cc(C(=O)NCCc3cc[n+](Cc4ccccc4Cl)cc3)ccc2c1`, the concentration for half-maximal inhibition (IC50) was found to be 830 nM against Cholinesterase [1] and 500 nM against Acetylcholinesterase [2]. For the compound `COc1ccc2cc(C(=O)NCCc3cc[n+](Cc4ccccc4C)cc3)ccc2c1`, the results for the IC50 against Cholinesterase [1] and against Acetylcholinesterase [2] were above 1000 nM and 1080 nM, respectively. Regarding `COc1ccc2cc(C(=O)Nc3cc[n+](Cc4ccccc4Cl)cc3)ccc2c1`, the values for the IC50 against Cholinesterase [1] and at Acetylcholinesterase [2] were above 1000 nM and 340 nM, respectively. Consider `COc1ccc2cc(C(=O)NCCc3cc[n+](Cc4ccccc4[N+](=O)[O-])cc3)ccc2c1`, for which the IC50 at Cholinesterase [1] was above 1000 nM; against Acetylcholinesterase [2], 280 nM.

For `COc1ccc2cc(C(=O)NCCc3cc[n+](Cc4cccc(Cl)c4)cc3)ccc2c1`, the figures for the IC50 on Cholinesterase [1] and against Acetylcholinesterase [2] were above 1000 nM and 610 nM, respectively. Regarding `COc1ccc2cc(C(=O)Nc3cc[n+](Cc4ccccc4[N+](=O)[O-])cc3)ccc2c1`, the IC50 at Cholinesterase [1] was above 1000 nM; against Acetylcholinesterase [2], 480 nM. In the same order, the values of `CCOc1ccc(C(=O)Nc2cc[n+](Cc3ccccc3)cc2)cc1` are 12700 nM and 201 nM. Take `COc1ccc(C(=O)Nc2cc[n+](Cc3ccccc3)cc2)cc1`: the IC50 against Acetylcholinesterase [2] worked out at 216 nM. Turning to `O=C(Nc1cc[n+](Cc2ccccc2)cc1)c1ccc(OCc2ccccc2)cc1`, the IC50 on Cholinesterase [1] is above 1000 nM; at Acetylcholinesterase [2], 360 nM. `CC(C)c1ccc(C(=O)Nc2cc[n+](Cc3ccccc3)cc2)cc1`: the IC50 on Acetylcholinesterase [2] came to 852 nM. Consider `COc1ccc2cc(C(=O)NCCc3cc[n+](Cc4ccc([N+](=O)[O-])cc4)cc3)ccc2c1`, for which the figures for the IC50 at Cholinesterase [1] and at Acetylcholinesterase [2] were above 1000 nM and 740 nM, respectively. A word on the Ki: it is the equilibrium dissociation constant of an inhibitor or competing ligand from its target. By inhibition is commonly meant the percentage by which the read-out fell short of the control. The low end stands for a weak effect, the high end for a strong effect. For the compound `COc1ccc2cc(C(=O)NCCC3CCN(Cc4ccccc4)CC3)ccc2c1`, the Papp in data set [3] amounted to 6.9 ×10⁻⁶ cm/s. For the same compound, the IC50 at Acetylcholinesterase [4] amounted to 170 nM. The Ki on Cholinesterase [5] turned out to be 150 nM; at Acetylcholinesterase [6], 210 nM. For the same compound, the inhibition in the data set listed under Rattus norvegicus worked out at 25%.

Source of the values: ChEMBL document CHEMBL4706581, “Discovery of methoxy-naphthyl linked N-(1-benzylpiperidine) benzamide as a blood-brain permeable dual inhibitor of acetylcholinesterase and butyrylcholinesterase” (Eur J Med Chem, 2020).
